Results published in article PMC6149774, “Inhibition by Commercial Aminoglycosides of Human Connexin Hemichannels Expressed in Bacteria” (Molecules : A Journal of Synthetic Chemistry and Natural …, 2017).

Assays:
human Cx46 hemichannels = molecular target: T1, human Cx46 hemichannels (Homo sapiens, UniProt Q9Y6H8); test: Cx46-dependent growth complementation assay in LB2003 cells; type: cell-based; conditions: for IC50: LB2003-pREP4 cells, NLM + 16 mM KCl, 10 µM IPTG, OD600 after 18 h, mean ± SEM
T1 construct: Details of the human Cx26, Cx43, and Cx46 DNAs used to transform LB2003 cells have been published; expressed in transfected cells; host or cells: E. coli LB2003 (with pREP4), IPTG-induced from pQE60
Text: The first task is accomplished through the use of defined media. We use Na^+ liquid medium (NLM) and K^+ liquid medium (KLM). NLM is a K^+-free phosphate-buffered medium (see Materials and Methods), whereas KLM is a K^+-rich medium that has the composition of NLM, except for the equimolar replacement of Na^+ with K^+. […] By mixing NLM and KLM it is easy to find a range of low [K^+]s where LB2003 cells expressing connexins grow. To optimize the signal-to-noise ratio we identified the “low” [K^+] at which the connexin-expressing cells grow to the highest absorbance measured at 600 nm (OD600), and then tested the dependence of the growth on the concentration of the expression inducer, isopropyl-β-D-thiogalactopyranoside (IPTG). This is important because the optimal signal-to-noise ratio depends on a balance between sufficient permeability to allow K^+ uptake through HCs and too many active HCs, which inhibits growth as a result of depolarization of the inner membrane and/or unbalanced shifts of ions and metabolites. In the case of Cx26, optimal growth is achieved with 4 mM K^+ and 500 μM IPTG, but for Cx43, 8 mM K^+ and 10 μM IPTG work best. From initial trials, we identified 16 mM K^+ and 10 μM IPTG as the best conditions for the Cx46 growth complementation assay.
This aminoglycoside 3'-phosphotransferase inactivates the AGs in Figure 4 by phosphorylation, allowing us to test for inhibition of connexin-dependent growth complementation without interference by the AG antibiotic effect. The absence of antibiotic effect in the LB2003-pREP4 cells was assayed at an AG concentration of 100 μM in cells grown in KLM (Figure 5). […] We then tested all AGs in Figure 4 for inhibition of connexin-dependent growth in AG-resistant LB2003 cells transformed with the pREP4 plasmid.
Briefly, pQE60 plasmids containing the connexin DNAs and plasmid pREP4 were used for transformation of E. coli LB2003 cells (generously provided by Dr. E.P. Bakker, Osnabrück University, Osnabrück, Germany). The pQE60 plasmids confer resistance to ampicillin, and pREP4 confers resistance to the AGs used in this study. LB2003 cells are missing three key K^+ transporters (Δtrk, Δkup, and Δkdp strains) and as a result cannot grow in low-[K^+] media [22, 23, 25]. Transformed LB2003 cells were stored as a 25% glycerol stock at −80 °C.
Basically, freshly prepared competent LB2003 containing the pREP4 plasmid were transformed with pQE60 (empty plasmid; negative control), pQE-Cx26 (human Cx26 DNA into pQE60), pQE-Cx43 (human Cx43 into pQE60) or pQE-Cx46 (human Cx46 into pQE60).

human Cx26 hemichannels = molecular target: T2, human Cx26 hemichannels (Homo sapiens, UniProt P29033); test: Cx26-dependent growth complementation assay in LB2003 cells; type: cell-based; conditions: for Reduction of Cx26-dependent growth complementation: 100 μM aminoglycoside
T2 construct: Details of the human Cx26, Cx43, and Cx46 DNAs used to transform LB2003 cells have been published; expressed in transfected cells; host or cells: E. coli LB2003 (with pREP4), IPTG-induced from pQE60
Experimental: (§1) We then tested all AGs in Figure 4 for inhibition of connexin-dependent growth in AG-resistant LB2003 cells transformed with the pREP4 plasmid.
(§2) Basically, freshly prepared competent LB2003 containing the pREP4 plasmid were transformed with pQE60 (empty plasmid; negative control), pQE-Cx26 (human Cx26 DNA into pQE60), pQE-Cx43 (human Cx43 into pQE60) or pQE-Cx46 (human Cx46 into pQE60). After growing overnight in Luria-Bertani (LB) medium (BD, Franklin Lakes, NJ, USA) supplemented with 100 mM KCl (to allow growth) and 0.4 mg/mL ampicillin, the cells were washed four times with NLM, to remove residual potassium from the LB medium, and were resuspended in complementation growth medium to an OD600 of 0.2. NLM contained 46 mM Na2HPO4, 23 mM NaH2PO4, 8 mM (NH4)2SO4, 0.4 mM MgSO4, 0.012 mM FeSO4, 1 mM sodium citrate, 44 mM glucose, and 0.006 mM thiamine hydrochloride, pH 7.0. KLM was identical to NLM except for the equimolar replacement of Na^+ with K^+. For growth-complementation by Cx26, Cx43, and Cx46 in low-[K^+] medium we used NLM + 4 mM KCl, NLM + 8 mM KCl, and NLM + 16 mM KCl, respectively. Expression of Cx26 was induced with 0.5 mM IPTG (GoldBio, St. Louis, MO, USA) at the time of dilution to OD600 = 0.2. For growth-complementation by Cx43 and Cx46, we used 10 µM IPTG. Transformed cells in the appropriate growth medium were seeded in 24- or 96-well plates, and the plates were incubated at 30 °C, with shaking at 250 and 500 rpm, respectively. OD600 was measured after 18 h manually for the 24-well plates or in a plate reader for the 96-well plates (Falcon 353072, Corning Inc., Corning, NY, USA). The initial OD600 = 0.2 was subtracted for growth calculations.

human Cx43 hemichannels = molecular target: T3, human Cx43 hemichannels (Homo sapiens, UniProt P17302); test: Cx43-dependent growth complementation assay in LB2003 cells; type: cell-based; conditions: for IC50: LB2003-pREP4 cells, NLM + 8 mM KCl, 10 µM IPTG, OD600 after 18 h, mean ± SEM
T3 construct: Details of the human Cx26, Cx43, and Cx46 DNAs used to transform LB2003 cells have been published; expressed in transfected cells; host or cells: E. coli LB2003 (with pREP4), IPTG-induced from pQE60
Experimental: as §1, §2

GJCs = system: GJCs; set-up: method as in PMID 26769242, PMID 25237294; conditions: cited from earlier work
HCs = system: HCs; set-up: method as in PMID 26769242, PMID 25237294; conditions: mammalian cells and frog oocytes; cited from earlier work
[1] = system: Cx26, Cx43, and Cx46 hemichannels; set-up: method as in PMID 25585383, PMID 27789753; conditions: cited from earlier work
LB2003 cells = test: Antibiotic effect on growth of LB2003 cells in KLM; type: cell-based, Escherichia coli; conditions: 100 μM, cells grown in KLM
Experimental: The absence of antibiotic effect in the LB2003-pREP4 cells was assayed at an AG concentration of 100 μM in cells grown in KLM (Figure 5).
All drugs were used at a concentration of 100 μM. The cells were grown in K^+ liquid medium (KLM). […] Data were normalized to the OD600 of LB2003-pREP4 cells in the absence of drug (5.7 ± 0.1).

[2] = system: Cx26, Cx43, and Cx46 hemichannels; test: Connexin-dependent growth complementation assay, all connexin groups together; type: cell-based, human; conditions: 100 μM aminoglycoside, AG-resistant LB2003 cells with pREP4
Experimental: The absence of antibiotic effect in the LB2003-pREP4 cells was assayed at an AG concentration of 100 μM in cells grown in KLM (Figure 5). […] We then tested all AGs in Figure 4 for inhibition of connexin-dependent growth in AG-resistant LB2003 cells transformed with the pREP4 plasmid.
Basically, freshly prepared competent LB2003 containing the pREP4 plasmid were transformed with pQE60 (empty plasmid; negative control), pQE-Cx26 (human Cx26 DNA into pQE60), pQE-Cx43 (human Cx43 into pQE60) or pQE-Cx46 (human Cx46 into pQE60). After growing overnight in Luria-Bertani (LB) medium (BD, Franklin Lakes, NJ, USA) supplemented with 100 mM KCl (to allow growth) and 0.4 mg/mL ampicillin, the cells were washed four times with NLM, to remove residual potassium from the LB medium, and were resuspended in complementation growth medium to an OD600 of 0.2. NLM contained 46 mM Na2HPO4, 23 mM NaH2PO4, 8 mM (NH4)2SO4, 0.4 mM MgSO4, 0.012 mM FeSO4, 1 mM sodium citrate, 44 mM glucose, and 0.006 mM thiamine hydrochloride, pH 7.0. KLM was identical to NLM except for the equimolar replacement of Na^+ with K^+. For growth-complementation by Cx26, Cx43, and Cx46 in low-[K^+] medium we used NLM + 4 mM KCl, NLM + 8 mM KCl, and NLM + 16 mM KCl, respectively. […] OD600 was measured after 18 h manually for the 24-well plates or in a plate reader for the 96-well plates (Falcon 353072, Corning Inc., Corning, NY, USA). […]

[3] = LB2003-pREP4 cells, NLM + 4 mM KCl, 0.5 mM IPTG, OD600 after 18 h, mean ± SEM

T3 sequence (P17302 whole entry): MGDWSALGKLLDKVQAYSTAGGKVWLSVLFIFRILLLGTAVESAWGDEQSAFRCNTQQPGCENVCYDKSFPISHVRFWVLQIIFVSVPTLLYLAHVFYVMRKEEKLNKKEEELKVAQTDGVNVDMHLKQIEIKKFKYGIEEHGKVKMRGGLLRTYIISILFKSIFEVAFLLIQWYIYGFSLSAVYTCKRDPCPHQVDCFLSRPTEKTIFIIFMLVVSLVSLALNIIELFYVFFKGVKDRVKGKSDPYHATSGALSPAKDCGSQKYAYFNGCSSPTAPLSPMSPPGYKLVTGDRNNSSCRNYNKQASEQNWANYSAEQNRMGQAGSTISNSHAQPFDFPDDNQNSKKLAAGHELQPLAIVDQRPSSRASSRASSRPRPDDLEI

NC[C@@H]1O[C@H](O[C@H]2[C@@H](O)[C@H](O[C@@H]3[C@@H](O)[C@H](N)C[C@H](N)[C@H]3O[C@H]3O[C@H](CO)[C@@H](O)[C@H](O)[C@H]3N)O[C@@H]2CO)[C@H](N)[C@@H](O)[C@@H]1O [Paromomycin, paromomycin]
Inhibition of Cx46-dependent growth complementation (human Cx46 hemichannels; 200 μM aminoglycoside): 37 ± 4%
IC50 (human Cx46 hemichannels): > 200 µM
Reduction of Cx26-dependent growth complementation (human Cx26 hemichannels): ~ 80%
IC50 (human Cx26 hemichannels; [3]): 42 ± 9 µM
IC50 (human Cx43 hemichannels): 201 ± 17 µM

CNC(C)C1CCC(N)C(OC2C(N)CC(N)C(OC3OCC(C)(O)C(NC)C3O)C2O)O1 (stereo not drawn) [gentamicin]
Effect on GJCs (GJCs): does not affect GJCs
Effect on HCs (HCs): inhibits HCs reversibly

kanamycin A
Effect on HCs in LB2003 cell growth assay [1]: inhibited HCs
Growth of AG-sensitive LB2003 cells (no pREP4) (LB2003 cells): prevented growth

NC[C@H]1O[C@H](O[C@H]2[C@H](O)[C@@H](O[C@H]3O[C@H](CO)[C@@H](O)[C@H](N)[C@H]3O)[C@H](N)C[C@@H]2N)[C@H](N)[C@@H](O)[C@@H]1O [Kanamycin B, kanamycin B]
IC50 (human Cx46 hemichannels): 175 ± 9 µM
IC50 ratio relative to Cx26 for Cx46 (human Cx46 hemichannels; isoform selectivity, Cx46 IC50 / Cx26 IC50): ~ 50
IC50 (human Cx26 hemichannels; [3]): 3.6 ± 0.9 µM
IC50 (human Cx43 hemichannels): 24 ± 2 µM
IC50 ratio relative to Cx26 for Cx43 (human Cx43 hemichannels; isoform selectivity, Cx43 IC50 / Cx26 IC50): ~ 7

CN[C@@H]1[C@@H](O)[C@@H](O[C@@H]2[C@@H](O)[C@H](O[C@H]3O[C@H]([C@@H](C)O)[C@@H](O)[C@H](O)[C@H]3N)[C@@H](N)C[C@H]2N)OC[C@]1(C)O [Geneticin, geneticin]
IC50 (human Cx26 hemichannels; IC50 of Cx26-dependent complementation (Figure 6), Figure 6A, fit of Hill's equation): 0.436 µM

NC[C@H]1O[C@H](O[C@H]2[C@H](O[C@@H]3O[C@H](CO)[C@@H](O)[C@H]3O)[C@@H](O)[C@H](N)C[C@@H]2N)[C@H](N)[C@@H](O)[C@@H]1O [ribostamycin]
Inhibition of connexin-dependent growth [2]: only a marginal effect
Reduction of Cx26-dependent growth complementation (human Cx26 hemichannels): 35 ± 3%
Effect on Cx43-dependent growth complementation (inhibition) (human Cx43 hemichannels; 100 μM aminoglycoside): −8 ± 5%
